# Target: influenza B virus minigenome (Hubei B) (UniProt P04665)
# Assay type: cell-based
# Details: read-out: RNP_Hubei B IC50
# Sequence of influenza B virus minigenome (Hubei B) (P04665 whole entry): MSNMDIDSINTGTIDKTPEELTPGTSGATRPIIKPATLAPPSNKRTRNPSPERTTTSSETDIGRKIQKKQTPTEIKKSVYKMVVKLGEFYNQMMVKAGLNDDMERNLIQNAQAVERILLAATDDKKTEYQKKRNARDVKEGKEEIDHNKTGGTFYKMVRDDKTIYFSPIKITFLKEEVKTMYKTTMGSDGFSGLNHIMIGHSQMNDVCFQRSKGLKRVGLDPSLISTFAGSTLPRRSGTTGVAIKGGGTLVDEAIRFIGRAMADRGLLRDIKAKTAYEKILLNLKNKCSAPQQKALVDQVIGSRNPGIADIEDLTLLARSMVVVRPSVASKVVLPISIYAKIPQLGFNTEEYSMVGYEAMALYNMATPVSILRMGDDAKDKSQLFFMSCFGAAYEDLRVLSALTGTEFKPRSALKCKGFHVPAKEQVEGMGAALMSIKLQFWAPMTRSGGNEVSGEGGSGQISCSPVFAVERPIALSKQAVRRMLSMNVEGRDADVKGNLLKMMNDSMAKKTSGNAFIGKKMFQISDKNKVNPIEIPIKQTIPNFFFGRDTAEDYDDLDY
row,Structure (SMILES),IC50
1,"C[C@]1(COCCF)COC[C@@H](COc2ccc(-c3cc(C(N)=O)c(=O)[nH]c3C(F)(F)F)cc2)O1 [Example 436, 5-(4-(((2S,6R)-6-((2-fluoroethoxy)methyl)-6-methyl-1,4-dioxan-2-yl)methoxy)phenyl)-2-oxo-6-(trifluoromethyl)-1,2-dihydropyridine-3-carboxamide]",5 to 10 µM
2,"C[C@@]1(C2CC2)COC[C@@H](COc2ccc(-c3cc(C(N)=O)c(=O)[nH]c3C(F)(F)F)cc2)O1 [Example 437, 5-(4-(((2S,6R)-6-cyclopropyl-6-methyl-1,4-dioxan-2-yl)methoxy)phenyl)-2-oxo-6-(trifluoromethyl)-1,2-dihydropyridine-3-carboxamide]",5 to 10 µM
3,"COC[C@]1(C2CC2)COC[C@@H](COc2ccc(-c3cc(C(N)=O)c(=O)[nH]c3C(F)(F)F)cc2)O1 [Example 438, 5-(4-(((2S,6R)-6-cyclopropyl-6-(methoxymethyl)-1,4-dioxan-2-yl)methoxy)phenyl)-2-oxo-6-(trifluoromethyl)-1,2-dihydropyridine-3-carboxamide]",5 to 10 µM
4,"COC[C@@]1(C2CC2)COC[C@@H](COc2ccc(-c3cc(C(N)=O)c(=O)[nH]c3C(F)(F)F)cc2)O1 [Example 439, 5-(4-(((2S,6S)-6-cyclopropyl-6-(methoxymethyl)-1,4-dioxan-2-yl)methoxy)phenyl)-2-oxo-6-(trifluoromethyl)-1,2-dihydropyridine-3-carboxamide]",5 to 10 µM
5,"NC(=O)c1cc(-c2ccc(OC[C@@H]3COC[C@]4(CCOC4)O3)cc2)c(C(F)(F)F)[nH]c1=O [Example 440, 5-(4-(((5R,7S)-2,6,9-trioxaspiro[4.5]decan-7-yl)methoxy)phenyl)-2-oxo-6-(trifluoromethyl)-1,2-dihydropyridine-3-carboxamide]",5 to 10 µM
